Reference: patent US9113629B2, “4-amino-6-(4-substituted-phenyl)-picolinates and 6-amino-2-(4-substituted-phenyl)-pyrimidine-4-carboxylates and their use as herbicides” (DOW AGROSCIENCES LLC, priority 2013, dated 2015)
Where two headings read alike, the source gives them in different places.

What was measured:
[1] = test system: Key Broadleaf Weed and Crop Species; experiment: Post-emergent Test II herbicidal activity (Table 5); assay type: in vivo; conditions: post-emergence, 336 h, 14 days after application; for pest or weed control at 70 g/ha: application rate 70 g ai/ha; for pest or weed control at 140 g/ha: application rate 140 g ai/ha
How it was run: (§1)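 Injury was rated visually 14 d after treatment on a 0–100% scale against untreated controls. Test compounds, formulated with crop oil concentrate and surfactant and serially diluted down to 1/16× of the top rate, were applied by track sprayer at 187 L/ha onto first- to second-true-leaf seedlings.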

[2] = test system: Key Grass and Sedge Weeds as well as Grass Crops; experiment: Post-emergent Test II herbicidal activity (Table 6); assay type: in vivo; conditions: post-emergence, 336 h; for pest or weed control at 70 g/ha: 70 g ai/ha; for pest or weed control at 140 g/ha: 140 g ai/ha
How it was run: as §1

[3] = ABUTH: velvetleaf (Abutilon theophrasti), read-out: Visual Growth Reduction (%) 14 Days After Application, ABUTH
[4] = AMARE: redroot pigweed (Amaranthus retroflexus), read-out: Visual Growth Reduction (%) 14 Days After Application, AMARE
[5] = BRSNN: oilseed-rape, canola (Brassica napus), read-out: Visual Growth Reduction (%) 14 Days After Application, BRSNN
[6] = CHEAL: lambsquarters (Chenopodium album), read-out: Visual Growth Reduction (%) 14 Days After Application, CHEAL
[7] = EPHHL: wild poinsettia (Euphorbia heterophylla), read-out: Visual Growth Reduction (%) 14 Days After Application, EPHHL
[8] = HELAN: sunflower (Helianthus annuus), read-out: Visual Growth Reduction (%) 14 Days After Application, HELAN
[9] = VIOTR: wild pansy (Viola tricolor), read-out: Visual Growth Reduction (%) 14 Days After Application, VIOTR
[10] = CYPES: yellow nutsedge (Cyperus esculentus), read-out: Visual Growth Reduction (%) 14 Days After Application, CYPES
[11] = DIGSA: crabgrass (Digitaria sanguinalis), read-out: Visual Growth Reduction (%) 14 Days After Application, DIGSA
[12] = ECHCG: barnyardgrass (Echinochloa crus-galli), read-out: Visual Growth Reduction (%) 14 Days After Application, ECHCG
[13] = ORYSA: rice (Oryza sativa), crop, read-out: Visual Growth Reduction (%) 14 Days After Application, ORYSA
[14] = SETFA: giant foxtail (Setaria faberi), read-out: Visual Growth Reduction (%) 14 Days After Application, SETFA
[15] = SORVU: grain sorghum (Sorghum vulgare), read-out: Visual Growth Reduction (%) 14 Days After Application, SORVU
[16] = TRZSS (wheat, Triticum aestivum), crop, read-out: Visual Growth Reduction (%) 14 Days After Application, TRZSS
[17] = ZEAMX: maize, corn (Zea mays), crop, read-out: Visual Growth Reduction (%) 14 Days After Application, ZEAMX

Question: What does the source list for `N#Cc1ccc(-c2nc(C(=O)O)c(Cl)c(N)c2F)cc1F` [Compound 156]?
Answer: pest or weed control at 70 g/ha [1, 3]: 60 to 74%; pest or weed control at 140 g/ha [1, 3]: 75 to 84%; pest or weed control at 70 g/ha [1, 4]: 95 to 100%; pest or weed control at 140 g/ha [1, 4]: 95 to 100%; pest or weed control at 70 g/ha [1, 5]: 75 to 84%; pest or weed control at 140 g/ha [1, 5]: 85 to 94%; pest or weed control at 70 g/ha [1, 6]: 95 to 100%; pest or weed control at 140 g/ha [1, 6]: 95 to 100%; pest or weed control at 70 g/ha [1, 7]: 85 to 94%; pest or weed control at 140 g/ha [1, 7]: 85 to 94%; pest or weed control at 70 g/ha [1, 8]: 95 to 100%; pest or weed control at 140 g/ha [1, 8]: 95 to 100%; pest or weed control at 70 g/ha [1, 9]: 60 to 74%; pest or weed control at 140 g/ha [1, 9]: 60 to 74%; pest or weed control at 70 g/ha [2, 10]: 60 to 74%; pest or weed control at 140 g/ha [2, 10]: 85 to 94%; pest or weed control at 70 g/ha [2, 11]: 60 to 74%; pest or weed control at 140 g/ha [2, 11]: 75 to 84%; pest or weed control at 70 g/ha [2, 12]: 75 to 84%; pest or weed control at 140 g/ha [2, 12]: 85 to 94%; pest or weed control at 70 g/ha [2, 13]: 0 to 29%; pest or weed control at 140 g/ha [2, 13]: 0 to 29%; pest or weed control at 70 g/ha [2, 14]: 85 to 94%; pest or weed control at 140 g/ha [2, 14]: 95 to 100%; pest or weed control at 70 g/ha [2, 15]: 60 to 74%; pest or weed control at 140 g/ha [2, 15]: 60 to 74%; pest or weed control at 70 g/ha [2, 16]: 45 to 59%; pest or weed control at 140 g/ha [2, 16]: 60 to 74%; pest or weed control at 70 g/ha [2, 17]: 75 to 84%; pest or weed control at 140 g/ha [2, 17]: 75 to 84%
